Results taken from patent US20080234336A1, “Synergistic Imazalil Combinations” (priority 2005, published 2008).

What was measured:
Format in all cases: cell-based
[1] = tested on: Geotrichum candidum (Gca); test: Poison plate assay (Experiment 2), fungal growth and Limpel synergy
Procedure: (§1) Name of the primary compound: imazalil (I) Formulations: (% is in w/v)
• Stock solution: 2000 ppm (w/w) • Solvent for dilutions: demineralised water • Fungal species: post harvest and seed pathogens: Geotrichum candidum (Gca) and Penicillium digitatum (Pdi) Calculated amounts of dilutions were poured into multi-well plates. Culture medium was added aseptically and uniform distribution was obtained by shaking. […] The expected activity E of a combination of active ingredients was calculated by using Limpel's formula (Richter, D. L; Pesticide Science 1987, 19: 309-315): • E=A+B−(A*B)/100 wherein A and B express the activities obtained for each of the active ingredients when applied alone. A synergistic effect is acknowledged if the measured activity M exceeds the calculated (expected) activity E (synergy indicated by figures in bold).

[2] = tested on: Penicillium digitatum (Pdi); test: as above; conditions: Table 6, Pdi; imazalil 0.02 ppm, combinations 0.02 + 0.02 ppm; conc 0 for carpropamid and fosetyl-Al alone
Procedure: as §1
• Stock solution: 2000 ppm (w/w) • Solvent for dilutions: demineralised water • Fungal species: post harvest and seed pathogens: Geotrichum candidum (Gca) and Penicillium digitatum (Pdi) Calculated amounts of dilutions were poured into multi-well plates. Culture medium was added aseptically and uniform distribution was obtained by shaking. The plates were inoculated with the test fungi and incubated during a period long enough to allow complete outgrowth of controls. • Test concentrations: noted in ppm versus growth medium (w/v): see tables • Replicates: 4 • Culture medium: PDA (Potato Dextrose Agar) • Culture conditions: 22° C. and 60% relative humidity • Inoculation: with a small piece of agar from the margin of an actively growing culture or a suspension of spores, mycelium or culture • Evaluation date: at complete outgrowth of control • Synergy calculation: Diameter of fungal growth (in mm) was measured, mean radial growth (X) and measured activity (M) were calculated. The expected activity E of a combination of active ingredients was calculated by using Limpel's formula (Richter, D. L; Pesticide Science 1987, 19: 309-315): • E=A+B−(A*B)/100 wherein A and B express the activities obtained for each of the active ingredients when applied alone. A synergistic effect is acknowledged if the measured activity M exceeds the calculated (expected) activity E (synergy indicated by figures in bold).

Colletotrichum musae = test: Poison plate assay (Experiment 1), MIC and Synergy Index; conditions: PDA, 27° C., evaluation after two days, ppm total active ingredient; for MIC: 48 h, read-out: MIC-values (minimum inhibitory concentration) in ppm
Description: (§2) Name of the primary compound: • imazalil (I) Name of the combination partners: • boscalid (II-a) • cyproconazole (II-b) • pyraclostrobin (II-c) • triflumizole (II-d) Stock solution: 1000 ppm in DMSO
(§3) • Concentrations of total active ingredient in the combinations: a series of concentrations increasing with steps of 1/3: 0.21-0.28-0.38-0.50-0.67-0.89-1.19-1.58-2.11-2.81-3.75-5.00-6.67-8.90-11.87-15.82-21.09-28.13-37.50-50.00 ppm • Culture medium: Potato Dextrose Agiar (PDA): 4 g potato infusion, 20 g bacto dextrose and 15 g bacto agar in 1 liter deionised water • Experimental set up: 24-well plates
(§4) • Inoculum: a spore/mycelium suspension (2 μl) or a piece of agar from the margin of an actively growing colony • Culture conditions: 27° C., 70% relative humidity, dark. • Evaluation: Evaluation after two days. Synergism between component (I) and one of the components (II) was determined by a commonly used and accepted method described by Kull F. C. et al. in Applied Microbiology, 9, 538-541 (1961) using the Synergy Index, which is calculated as follows for two compounds A and B: […]
(§5) wherein: • QA is the concentration of compound A in ppm, acting alone, which produced an end point (e.g. MIC), • Qa is the concentration of compound A in ppm, in the mixture, which produced an end point (e.g. MIC), • QB is the concentration of compound B in ppm, acting alone, which produced an end point (e.g. MIC), • Qb is the concentration of compound B in ppm, in the mixture, which produced an end point (e.g. MIC). When the Synergy Index is greater than 1.0, antagonism is indicated.

Geotrichum candidum = test: as above; conditions: 48 h, PDA, 27° C., evaluation after two days, ppm total active ingredient, read-out: MIC-values (minimum inhibitory concentration) in ppm
Description: as §2, §3, §4, §5

Gloeosporium album = test: as above; conditions: PDA, 27° C., evaluation after two days, ppm total active ingredient; for MIC: Phlyctema vagabunda, 48 h, read-out: MIC-values (minimum inhibitory concentration) in ppm
Description: as §2, §3, §4, §5

Rhizoctonia solani = test: as above; conditions: PDA, 27° C., evaluation after two days, ppm total active ingredient; for MIC: 48 h, read-out: MIC-values (minimum inhibitory concentration) in ppm
Description: as §2, §3, §4, §5

[3] = Table 7, Gca, conc 60 μM (tetraconazole 6 μM), combinations 60 + 60, (I) + (II-i) 60 + 6
[4] = Table 7, Gca, conc 70 μM (tetraconazole 7 μM), combinations 70 + 70, (I) + (II-i) 70 + 7
[5] = Table 5, Gca, conc 20 ppm each (combinations 20 + 20)
[6] = Table 5, Gca, conc 25 ppm each (combinations 25/25)

Compound | M = measured activity [1, 3] | X = mean fungal growth [1, 3] | M = measured activity [1, 4] | X = mean fungal growth [1, 4] | MIC (Colletotrichum musae) | MIC (Gloeosporium album) | MIC (Rhizoctonia solani) | further results
CSC(=O)c1cccc2nnsc12 [acibenzolar-S-me (II-e), benzo[1,2,3]-thiadiazole-7-carbothioic acid S-methyl ester] | 7 | 14 mm | 3 | 15 mm | – | – | – | –
CCC1(C(=O)NC(C)c2ccc(Cl)cc2)C(C)C1(Cl)Cl (stereo not drawn) [carpropamid (II-f), 2,2-dichloro-N-[1-(4-chlorophenyl)ethyl]-1-ethyl-3-methyl-cyclopropanecarboxamide] | – | – | – | – | – | – | – | M = measured activity [2]: 0; X = mean fungal growth [2]: 15 mm
CC(C1CC1)C(O)(Cn1cncn1)c1ccc(Cl)cc1 (stereo not drawn) [cyproconazole, α-(4-chloro-phenyl)-α-(1-cyclopropyl-ethyl)-1H-1,2,4-triazole-1-ethanol] | – | – | – | – | 66.7 µg/mL | 2.81 µg/mL | 11.9 µg/mL | MIC (Geotrichum candidum): 6.67 µg/mL
C=CCOC(Cn1ccnc1)c1ccc(Cl)cc1Cl (stereo not drawn) [imazalil] | 7 | 14 mm | 68 | 5 mm | 8.9 µg/mL | 1.58 µg/mL | 50 µg/mL | MIC (Geotrichum candidum): 66.7 µg/mL; M = measured activity [1, 5]: 38; X = mean fungal growth [1, 5]: 9 mm; M = measured activity [1, 6]: 50; X = mean fungal growth [1, 6]: 7 mm; M = measured activity [2]: 88; X = mean fungal growth [2]: 2 mm
COC(=O)N(OC)c1ccccc1COc1ccn(-c2ccc(Cl)cc2)n1 [pyraclostrobin, methyl N-(2-[1-(4-chlorophenyl)-1H-pyrazol-3-yloxymethyl]phenyl](N-methoxy)carbamate] | – | – | – | – | 66.7 µg/mL | 66.7 µg/mL | 66.7 µg/mL | –
FC(F)C(F)(F)OCC(Cn1cncn1)c1ccc(Cl)cc1Cl (stereo not drawn) [tetraconazole (II-i), 1-[2-(2,4-dichloro-phenyl)-3-(1,1,2,2-tetrafluoroethoxy)propyl]-1H-1,2,4-triazole] | 15 | 13 mm | 3 | 15 mm | – | – | – | M = measured activity [1, 5]: 36; X = mean fungal growth [1, 5]: 9 mm; M = measured activity [1, 6]: 45; X = mean fungal growth [1, 6]: 8 mm
CCC(C)(NC(=O)c1cc(Cl)c(C)c(Cl)c1)C(=O)CCl (stereo not drawn) [zoxamide (II-j), 3,5-dichloro-N-(3-chloro-1-ethyl-1-methyl-2-oxopropyl)-4-methyl-benzamide] | 0 | 15 mm | 2 | 15 mm | – | – | – | –
(E)-4-chloro-ααα-trifluoro-N-(1-imidazol-1-yl-2-propoxyethylidene)-o-toluidine [triflumizole] | – | – | – | – | – | – | – | MIC-values (minimum inhibitory concentration) in ppm (Colletotrichum musae): 28.13 ppm; MIC-values (minimum inhibitory concentration) in ppm (Gloeosporium album): 6.67 ppm; MIC-values (minimum inhibitory concentration) in ppm (Rhizoctonia solani): 37.50 ppm
